Values quoted from earlier work in the PKSmart pharmacokinetics tables (Seal et al. 2025).

Test: Lombardo, Berellini, Obach 2018, Drug Metab Dispos 46:1466, doi 10.1124/dmd.118.082966
Conditions: human; for MRT / Vd / clearance / half-life: in vivo, iv; for fraction unbound: plasma

In the case of `Oc1c(C2=CC[C@@H](c3ccc(Cl)cc3)CC2)c(O)c2ccccc2c1O`, the MRT is given as 67 h, the Vd is given as 0.6 L/kg and the clearance is given as 0.15 mL/min/kg. The half-life was 63 h and the fraction unbound was 0.001.

In the case of `Cn1c(COP(=O)(NCCBr)NCCBr)cnc1[N+](=O)[O-]`, the MRT is given as 0.72 h, the Vd is given as 0.64 L/kg and the clearance is given as 14.8 mL/min/kg. For the same compound, the half-life was 1 h.

In the case of `Cc1nc(=O)c2cc(CN(C)c3ccc(C(=O)NC(CCC(=O)O)C(=O)O)s3)ccc2[nH]1` (centres undefined), the MRT is given as 123 h, the Vd is given as 6.57 L/kg and the clearance is given as 0.9 mL/min/kg. For the same compound, the half-life was 140 h and the fraction unbound was 0.05.

For `O=C(O)C1/C(=C/CO)O[C@@H]2CC(=O)N12` (some centres undefined), the MRT is given as 1 h, the Vd is given as 0.22 L/kg and the clearance is given as 3.1 mL/min/kg. The half-life was 0.9 h.

In the case of `CC(CN1c2ccccc2Sc2ccccc21)N(C)C` (centres undefined), the fraction unbound is listed as 0.09.

In the case of `COC1C(=O)C(C)C[C@H](C)C=CC=CC=C(C)[C@@H](OC)C[C@@H]2CC[C@@H](C)[C@@](O)(O2)C(=O)C(=O)N2CCCCC2C(=O)O[C@H]([C@H](C)C[C@@H]2CC[C@@H](OP(C)(C)=O)[C@H](OC)C2)CC(=O)C(C)=CC(C)[C@H]1O` (some centres undefined), the MRT is listed as 48.5 h, the Vd is listed as 3.2 L/kg and the clearance is listed as 1.1 mL/min/kg. For the same compound, the half-life was 46.3 h.

For `CCc1c(O)cc(O)c(C(=O)c2ccc(OCCN3CCOCC3)c(OC)c2)c1CC(=O)N(CCOC)CCOC`, the MRT is given as 3.21 h, the Vd is given as 1.32 L/kg and the clearance is given as 6.87 mL/min/kg. The half-life was 5.94 h.

For `CN1C(=O)CC[C@H]1c1cccnc1`, the MRT is given as 21 h, the Vd is given as 1.1 L/kg and the clearance is given as 0.89 mL/min/kg. For the same compound, the half-life was 17 h.

In the case of `Cc1c(Cl)cccc1Nc1ccccc1C(=O)O`, the MRT is given as 1.13 h, the Vd is given as 0.16 L/kg and the clearance is given as 2.37 mL/min/kg. The half-life was 2.15 h and the fraction unbound was 0.003.

In the case of `COc1ccc2[n-]c([S@+](O)Cc3ncc(C)c(OC)c3C)nc2c1`, the MRT is given as 0.9 h, the Vd is given as 0.2 L/kg and the clearance is given as 3.85 mL/min/kg. For the same compound, the half-life was 0.83 h and the fraction unbound was 0.03.

For `C[C@@H]([C@@H](O)c1ccc(O)cc1)N1CCC(O)(c2ccccc2)CC1`, the MRT is listed as 2.6 h, the Vd is listed as 4.4 L/kg and the clearance is listed as 27 mL/min/kg. For the same compound, the half-life was 3.7 h and the fraction unbound was 0.63.

In the case of `CCN1CCC[C@@H]1CNC(=O)c1cc(S(N)(=O)=O)ccc1OC`, the MRT is given as 8.01 h, the Vd is given as 0.94 L/kg and the clearance is given as 1.9 mL/min/kg. The half-life was 6.5 h.

For `CCOCCn1c(C2CCN(CCc3ccc(C(C)(C)C(=O)O)cc3)CC2)nc2ccccc21`, the MRT is given as 3.56 h, the Vd is given as 0.61 L/kg and the clearance is given as 2.87 mL/min/kg. For the same compound, the half-life was 5.16 h and the fraction unbound was 0.13.

In the case of `COC1=C(C(=O)O)N2C(=O)C(NC(=O)C(N)C3=CCC=CC3)[C@H]2SC1` (some centres undefined), the MRT is listed as 0.59 h, the Vd is listed as 0.17 L/kg and the clearance is listed as 4.78 mL/min/kg. The half-life was 0.74 h and the fraction unbound was 0.1.

In the case of `CC[C@H](O)[C@@H](C)[C@H]1O[C@@H]1C[C@@](C)(O)/C=C/C=C(\C)[C@H]1OC(=O)C[C@H](O)CC[C@@](C)(O)[C@@H](OC(=O)N2CCN(C3CCCCCC3)CC2)C=C[C@@H]1C`, the MRT is given as 3.5 h, the Vd is given as 10.1 L/kg and the clearance is given as 47.9 mL/min/kg. For the same compound, the half-life was 9.2 h.

In the case of `C=C[C@]1(C)C[C@@H](OC(=O)CS[C@@H]2CC[C@@H](N)C[C@H]2O)[C@]2(C)[C@H](C)CC[C@]3(CCC(=O)[C@H]32)[C@@H](C)[C@@H]1O`, the MRT is given as 5.53 h, the Vd is given as 1.32 L/kg and the clearance is given as 3.96 mL/min/kg. The half-life was 6.4 h and the fraction unbound was 0.17.

For `C[N+](C)(O)CCCN1c2ccccc2CCc2ccccc21`, the MRT is listed as 2.6 h, the Vd is listed as 1.9 L/kg and the clearance is listed as 12 mL/min/kg. For the same compound, the half-life was 1.8 h.

For `COCCCC/C(=N\OCCN)c1ccc(C(F)(F)F)cc1`, the MRT is listed as 12.3 h, the Vd is listed as 23.5 L/kg and the clearance is listed as 31.9 mL/min/kg. For the same compound, the half-life was 12.5 h and the fraction unbound was 0.2.

In the case of `O[C@@H](CNC[C@H](O)[C@H]1CCc2cc(F)ccc2O1)[C@@H]1CCc2cc(F)ccc2O1`, the MRT is listed as 13 h, the Vd is listed as 11 L/kg and the clearance is listed as 14 mL/min/kg. The half-life was 10 h and the fraction unbound was 0.02.

For `CN(C)[C@@H]1C(O)=C(C(N)=O)C(=O)[C@@]2(O)C(O)=C3C(=O)c4c(O)c(NC(=O)CN5CCCC5)cc(F)c4C[C@H]3C[C@@H]12`, the MRT is given as 10.3 h, the Vd is given as 2.3 L/kg and the clearance is given as 3.71 mL/min/kg. The fraction unbound was 0.18.

For `CCCc1nc(C(C)(C)O)c(C(=O)O)n1Cc1ccc(-c2ccccc2-c2nnn[nH]2)cc1`, the clearance is given as 0.29 mL/min/kg and the half-life is given as 10.8 h.

For `Cn1c(CCCC(=O)O)nc2cc(N(CCCl)CCCl)ccc21`, the MRT is listed as 0.81 h, the Vd is listed as 0.22 L/kg and the clearance is listed as 4.49 mL/min/kg. The half-life was 0.41 h and the fraction unbound was 0.05.

In the case of `COc1cccc2c(C(=O)N3CCN(C)C(C)C3)cn(CC3CCCCC3)c12` (centres undefined), the MRT is given as 5.7 h, the Vd is given as 1 L/kg and the clearance is given as 3 mL/min/kg. The half-life was 4.2 h.

For `O=C(O)CCCC[C@H]1CCSS1`, the MRT is listed as 0.13 h, the Vd is listed as 0.11 L/kg and the clearance is listed as 13.4 mL/min/kg. The half-life was 0.21 h.

For `CN(C)C1CCN(C(=O)c2ccc(NC(=O)Nc3ccc(-c4nc(N5CCOCC5)nc(N5CCOCC5)n4)cc3)cc2)CC1`, the MRT is given as 17.6 h, the Vd is given as 2.39 L/kg and the clearance is given as 2.25 mL/min/kg. The half-life was 35.8 h.

For `CCN(CC)CC#CCOC(=O)C(O)(c1ccccc1)C1CCCCC1` (centres undefined), the MRT is listed as 2.7 h, the Vd is listed as 0.85 L/kg and the clearance is listed as 5.1 mL/min/kg. For the same compound, the half-life was 7.2 h and the fraction unbound was 0.0034.

In the case of `O=C(O)C[C@H](O)C[C@H](O)/C=C/c1c(C2CC2)nc2ccccc2c1-c1ccc(F)cc1`, the MRT is listed as 2.7 h, the Vd is listed as 0.9 L/kg and the clearance is listed as 5.85 mL/min/kg. The half-life was 4.6 h and the fraction unbound was 0.005.

In the case of `CC(=N)N1CC[C@H](Oc2ccc(C(Cc3ccc4ccc(C(=N)N)cc4c3)C(=O)O)cc2)C1` (some centres undefined), the MRT is given as 14.4 h, the Vd is given as 1.55 L/kg and the clearance is given as 1.86 mL/min/kg. The half-life was 24 h.

For `CON=C(C(=O)NC1C(=O)N2C(C(=O)O)=C(C)CS[C@H]12)c1csc(N)n1` (some centres undefined), the MRT is listed as 2.5 h, the Vd is listed as 0.28 L/kg and the clearance is listed as 1.9 mL/min/kg. The half-life was 2.1 h and the fraction unbound was 0.78.

For `Nc1c2c(nc3ccccc13)CCCC2`, the MRT is given as 3.3 h, the Vd is given as 11 L/kg and the clearance is given as 56 mL/min/kg. For the same compound, the half-life was 3.3 h and the fraction unbound was 0.25.

In the case of `CC(=O)[C@]1(O)Cc2c(O)c3c(c(O)c2[C@@H](O[C@H]2C[C@H](N4CC4)[C@H](OS(C)(=O)=O)[C@H](C)O2)C1)C(=O)c1ccccc1C3=O`, the MRT is listed as 2.09 h, the Vd is listed as 2.95 L/kg and the clearance is listed as 23.5 mL/min/kg. For the same compound, the half-life was 7.33 h and the fraction unbound was 0.006.

In the case of `CCOc1cc(Cc2cnc(N)nc2N)cc(OCC)c1-n1cccc1`, the Vd is given as 2.5 L/kg, the clearance is given as 3.5 mL/min/kg and the half-life is given as 9.4 h. For the same compound, the fraction unbound was 0.12.
